We go through 17 compounds from patent publication US9540377B2, “2,6,7,8 substituted purines as HDM2 inhibitors” (Merck Sharp & Dohme Corp., priority 2013, dated 2017).

Chain of HDM2 (truncated, residues 17 to 125, containing p53 binding surface) (Q00987 17-125): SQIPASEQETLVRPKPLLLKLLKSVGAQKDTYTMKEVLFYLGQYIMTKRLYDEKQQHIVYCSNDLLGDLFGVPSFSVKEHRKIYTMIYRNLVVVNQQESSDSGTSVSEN

The first experiment concerns the target HDM2 (truncated, residues 17 to 125, containing p53 binding surface) (Homo sapiens (Human), UniProt Q00987). Kind of experiment: HDM2 FRET assay (inhibition of binding of FITC labeled p53-site peptide to HDM2). The note with it: Table 16. An excerpt: IC50 DETERMINATIONS: Dose-response curves were plotted from the inhibition data, from 10 point serial dilutions of inhibitory compounds. Concentration of compound was plotted against em520/Cem495 ratio signal. To generate IC50 values, the dose-response curves were fitted to a standard sigmoidal curve and IC50 values were derived by nonlinear regression analysis.
Usually IC50 stands for the point on the concentration scale where inhibition reaches its midpoint. Consider `Cc1noc(C2CCCN2c2nc3nc(C(=O)O)nc(-c4cncc(Cl)c4)c3n2C[C@H]2CC[C@H](C)CC2)n1` (mixture of isomers) [Example 16.145, 6-(5-chloropyridin-3-yl)-7-[(trans-4-methylcyclohexyl)methyl]-8-[2-(3-methyl-1,2,4-oxadiazol-5-yl)pyrrolidin-1-yl]-7H-purine-2-carboxylic acid], for which the IC50 amounted to 3.92 nM.
In the case of `C[C@H]1CC[C@H](Cn2c(N3CCO[C@H]4CCCC[C@H]43)nc3nc(-c4noc(=O)[nH]4)nc(-c4cncc(Cl)c4)c32)CC1` (racemic) [Example 16.131, 3-{6-(5-chloropyridin-3-yl)-7-[(trans-4-methylcyclohexyl)methyl]-8-[(cis)-octahydro-4H-1,4-benzoxazin-4-yl]-7H-purin-2-yl}-1,2,4-oxadiazol-5(4H)-one], the IC50 stood at 35 nM. This IC50 is about 8.9-fold higher than that of the compound before.

Still in this experiment, the particulars now being: Table 18.
As to `CC([C@H]1CC[C@H](C)CC1)n1c(N2CCOC3CCCC32)nc2nc(-c3n[nH]c(=O)o3)nc(-c3cccc(Cl)c3)c21` (single isomer, unassigned) [Example 18.39, 5-{6-(3-chlorophenyl)-8-(hexahydrocyclopenta[b][1,4]oxazin-4(4aH)-yl)-7-[1-(trans-4-methylcyclohexyl)ethyl]-7H-purin-2-yl}-1,3,4-oxadiazol-2(3H)-one], the IC50 amounted to 3.73 nM. In other words, the single-digit nanomolar range.

The experiment is the same for the next values; noted with them: Table 23.
For the compound `CC1CCCCC1(F)c1nc2nc(-c3n[nH]c(=O)o3)nc(-c3cncc(Cl)c3)c2n1C[C@H]1CC[C@H](C)CC1` (single isomer, unassigned) [Example 23.82, 5-{6-(5-chloropyridin-3-yl)-8-(1-fluoro-2-methylcyclohexyl)-7-[(trans-4-methylcyclohexyl)methyl]-7H-purin-2-yl}-1,3,4-oxadiazol-2(3H)-one], the half-maximal inhibitory concentration (IC50) stood at 7.63 nM.
Compound `C[C@H]1CC[C@H](Cn2c(C(F)C3CCCCC3)nc3nc(-c4noc(=O)[nH]4)nc(-c4cccc(Cl)c4)c32)CC1` (mixture of isomers) [Example 23.29, 3-{6-(3-chlorophenyl)-8-[cyclohexyl(fluoro)methyl]-7-[(trans-4-methylcyclohexyl)methyl]-7H-purin-2-yl}-1,2,4-oxadiazol-5(4H)-one] registered an IC50 of 34.8 nM.
On the same count and under the same terms, the result for `CC(F)(c1ncccc1F)c1nc2nc(-c3n[nH]c(=O)o3)nc(-c3cncc(Cl)c3)c2n1C[C@H]1CC[C@H](C)CC1` (single isomer, unassigned) [Example 23.84, 5-{6-(5-chloropyridin-3-yl)-8-[1-fluoro-1-(3-fluoropyridin-2-yl)ethyl]-7-[(trans-4-methylcyclohexyl)methyl]-7H-purin-2-yl}-1,3,4-oxadiazol-2(3H)-one] reads 16.5 nM; that for `CC(c1c(F)cccc1F)c1nc2nc(-c3noc(=O)[nH]3)nc(-c3cncc(Cl)c3)c2n1C[C@H]1CC[C@H](C)CC1` (mixture of isomers) [Example 23.115, 3-{6-(5-chloropyridin-3-yl)-8-[1-(2,6-difluorophenyl)ethyl]-7-[(trans-4-methylcyclohexyl)methyl]-7H-purin-2-yl}-1,2,4-oxadiazol-5(4H)-one], 2.23 nM; that for `COC(C)(c1ncccc1F)c1nc2nc(-c3n[nH]c(=O)o3)nc(-c3cncc(Cl)c3)c2n1C[C@H]1CC[C@H](C)CC1` (single isomer, unassigned) [Example 23.87, 5-{6-(5-chloropyridin-3-yl)-8-[1-(3-fluoropyridin-2-yl)-1-methoxyethyl]-7-[(trans-4-methylcyclohexyl)methyl]-7H-purin-2-yl}-1,3,4-oxadiazol-2(3H)-one], 19.6 nM.
With `COC(C)(c1ncoc1C)c1nc2nc(-c3noc(=O)[nH]3)nc(-c3cccc(Cl)c3)c2n1C[C@H]1CC[C@H](C)CC1` (mixture of isomers) [Example 23.57, 3-{6-(3-chlorophenyl)-8-[1-methoxy-1-(5-methyl-1,3-oxazol-4-yl)ethyl]-7-[(trans-4-methylcyclohexyl)methyl]-7H-purin-2-yl}-1,2,4-oxadiazol-5(4H)-one], the IC50 stood at 2.07 nM.
On to `COCC(C)(OC)c1nc2nc(-c3noc(=O)[nH]3)nc(-c3cncc(Cl)c3)c2n1C[C@H]1CC[C@H](C)CC1` (mixture of isomers) [Example 23.107, 3-{6-(5-chloropyridin-3-yl)-8-(1,2-dimethoxy-1-methylethyl)-7-[(trans-4-methylcyclohexyl)methyl]-7H-purin-2-yl}-1,2,4-oxadiazol-5(4H)-one], for which the IC50 is 5.37 nM.
On the same count and under the same terms, the result for `COC(C)(c1nc2nc(-c3noc(=O)[nH]3)nc(-c3cncc(Cl)c3)c2n1C[C@H]1CC[C@H](C)CC1)C1CCCC1` (mixture of isomers) [Example 23.71, 3-{6-(5-chloropyridin-3-yl)-8-(1-cyclopentyl-1-methoxyethyl)-7-[(trans-4-methylcyclohexyl)methyl]-7H-purin-2-yl}-1,2,4-oxadiazol-5(4H)-one] reads 1.29 nM.
Regarding `C[C@H]1CC[C@H](Cn2c(C(O)C3CCCCC3)nc3nc(-c4n[nH]c(=O)o4)nc(-c4cccc(Cl)c4)c32)CC1` (mixture of isomers) [Example 23.7, 5-{6-(3-chlorophenyl)-8-[cyclohexyl(hydroxy)methyl]-7-[(trans-4-methylcyclohexyl)methyl]-7H-purin-2-yl}-1,3,4-oxadiazol-2(3H)-one], the IC50 came out at 20.2 nM.
Take `CC(F)(c1ccccc1F)c1nc2nc(-c3n[nH]c(=O)o3)nc(-c3cncc(Cl)c3)c2n1C[C@H]1CC[C@H](C)CC1` (single isomer, unassigned) [Example 23.33, 5-{6-(5-chloropyridin-3-yl)-8-[1-fluoro-1-(2-fluorophenyl)ethyl]-7-[{trans-4-methylcyclohexyl)methyl]-7H-purin-2-yl}-1,3,4-oxadiazol-2(3H)-one]: the IC50 worked out at 0.453 nM.
In turn, `COC(C)(c1ccccn1)c1nc2nc(-c3n[nH]c(=O)o3)nc(-c3cccc(Cl)c3)c2n1C[C@H]1CC[C@H](C)CC1` (single isomer, unassigned) [Example 23.54, 5-{6-(3-chlorophenyl)-8-(1-methoxy-1-pyridin-2-ylethyl)-7-[(trans-4-methylcyclohexyl)methyl]-7H-purin-2-yl}-1,3,4-oxadiazol-2(3H)-one] had an IC50 of 13.6 nM.
`CC(C)(C)C(C)(F)c1nc2nc(-c3noc(=O)[nH]3)nc(-c3cncc(Cl)c3)c2n1C[C@H]1CC[C@H](C)CC1` (mixture of isomers) [Example 23.91, 3-{6-(5-chloropyridin-3-yl)-8-(1-fluoro-1,2,2-trimethylpropyl)-7-[(trans-4-methylcyclohexyl)methyl]-7H-purin-2-yl}-1,2,4-oxadiazol-5(4H)-one] yielded an IC50 of 13 nM.
Same read-out and setting: for `CC(F)(c1ccccn1)c1nc2nc(-c3noc(=O)[nH]3)nc(-c3cccc(Cl)c3)c2n1C[C@H]1CC[C@H](C)CC1` (single isomer, unassigned) [Example 23.31, 3-{6-(3-chlorophenyl)-8-(1-fluoro-1-pyridin-2-ylethyl)-7-[(trans-4-methylcyclohexyl)methyl]-7H-purin-2-yl}-1,2,4-oxadiazol-5(4H)-one] the value was 3.73 nM; for `COc1ccccc1C(C)(OC)c1nc2nc(-c3noc(=O)[nH]3)nc(-c3cncc(Cl)c3)c2n1C[C@H]1CC[C@H](C)CC1` (mixture of isomers) [Example 23.79, 3-{6-(5-chloropyridin-3-yl)-8-[1-methoxy-1-(2-methoxyphenyl)ethyl]-7-[(trans-4-methylcyclohexyl)methyl]-7H-purin-2-yl}-1,2,4-oxadiazol-5(4H)-one], 3.8 nM.
